Source: ChEMBL document CHEMBL1201862, “PubChem BioAssay data set” (2004)
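A five-concentration, 48-hour dose response in 96-well plates underlies each endpoint, interpolated linearly between surrounding concentrations. Here, GI50 denotes the concentration required for 50% inhibition of growth.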 Calls of active or inactive are those of the source. No stated cut-off is given here; in the data, active = GI50 up to about 1.1 µM and inactive = higher.

What was measured:
Assay in all cases: DTP human tumour cell line panel, 48 h
SN12C = system: SN12C
OVCAR-5 = system: OVCAR-5
NCI-H460 = system: NCI-H460
MOLT-4 = system: MOLT-4
CCRF-CEM = system: CCRF-CEM
SW-620 = system: SW-620
SF-539 = system: SF-539
786-0 = system: 786-0
HT-29 = system: HT-29
UACC-257 = system: UACC-257
NCI-H522 = system: NCI-H522
HCT-116 = system: HCT-116
UACC-62 = system: UACC-62
SF-268 = system: SF-268
HL-60 = system: HL-60
KM12 = system: KM12
LXFL 529 = system: LXFL 529
U-251 = system: U-251
HOP-62 = system: HOP-62

Compound | GI50 (SN12C) | GI50 (OVCAR-5) | GI50 (NCI-H460) | GI50 (MOLT-4) | GI50 (CCRF-CEM) | GI50 (SW-620) | GI50 (SF-539) | GI50 (786-0) | GI50 (HT-29) | GI50 (UACC-257) | GI50 (NCI-H522) | GI50 (HCT-116) | GI50 (UACC-62) | GI50 (SF-268) | GI50 (HL-60) | GI50 (KM12) | GI50 (LXFL 529) | GI50 (U-251) | GI50 (HOP-62)
CCOC(=O)CSc1cc[nH]c(=O)n1 | > 100 µM (inactive) | > 100 µM (inactive) | > 100 µM (inactive) | > 100 µM (inactive) | > 100 µM (inactive) | > 100 µM (inactive) | > 100 µM (inactive) | > 100 µM (inactive) | > 100 µM (inactive) | > 100 µM (inactive) | > 100 µM (inactive) | > 100 µM (inactive) | > 100 µM (inactive) | > 100 µM (inactive) | > 100 µM (inactive) | > 100 µM (inactive) | > 100 µM (inactive) | > 100 µM (inactive) | 
CCCCNC(=O)OCC(COc1ccccc1OC)OC(=O)NCCCC (configuration not stated) | > 100 µM (inactive) |  | > 100 µM (inactive) | > 100 µM (inactive) | > 100 µM (inactive) | > 100 µM (inactive) | > 100 µM (inactive) | > 100 µM (inactive) | > 100 µM (inactive) | > 100 µM (inactive) | 45.4 µM (inactive) | > 100 µM (inactive) | 89.9 µM (inactive) | > 100 µM (inactive) | > 100 µM (inactive) | > 100 µM (inactive) | > 100 µM (inactive) | > 100 µM (inactive) | > 100 µM (inactive)
COC(=O)N(C(=O)OC)C(C(=O)O)C(C)C (configuration not stated) | > 100 µM (inactive) | > 100 µM (inactive) | > 100 µM (inactive) |  |  | > 100 µM (inactive) | > 100 µM (inactive) | > 100 µM (inactive) | > 100 µM (inactive) | > 100 µM (inactive) | > 100 µM (inactive) |  |  | > 100 µM (inactive) | > 100 µM (inactive) | > 100 µM (inactive) | > 100 µM (inactive) | > 100 µM (inactive) | > 100 µM (inactive)
COc1ccc(C2=Nc3ccccc3SC(C)C2)cc1OC (configuration not stated) | 20.3 µM (inactive) | 24.7 µM (inactive) | 19.2 µM (inactive) | 14.5 µM (inactive) | 31.8 µM (inactive) | 5.66 µM (inactive) |  | 16.3 µM (inactive) | 19.7 µM (inactive) | 23.5 µM (inactive) | 17.4 µM (inactive) | 17.7 µM (inactive) | 17.8 µM (inactive) | 22 µM (inactive) | 22.4 µM (inactive) | 16.8 µM (inactive) | 17.4 µM (inactive) | 17.2 µM (inactive) | 
CCOc1ccc(NC(=O)/C(=C\c2ccc(C)cc2)C(C)=O)cc1 | > 100 µM (inactive) | > 100 µM (inactive) |  | > 100 µM (inactive) | > 100 µM (inactive) | > 100 µM (inactive) | > 100 µM (inactive) | > 100 µM (inactive) | > 100 µM (inactive) | > 100 µM (inactive) | > 100 µM (inactive) | > 100 µM (inactive) | > 100 µM (inactive) | > 100 µM (inactive) | < 0.01 µM (active) |  | > 100 µM (inactive) | > 100 µM (inactive) | > 100 µM (inactive)
CS(=O)(=O)NNS(=O)(=O)c1cccc([N+](=O)[O-])c1 | > 100 µM (inactive) |  | > 100 µM (inactive) | > 100 µM (inactive) | > 100 µM (inactive) | > 100 µM (inactive) | > 100 µM (inactive) | > 100 µM (inactive) | > 100 µM (inactive) | > 100 µM (inactive) | > 100 µM (inactive) | > 100 µM (inactive) | > 100 µM (inactive) |  | > 100 µM (inactive) | > 100 µM (inactive) | > 100 µM (inactive) | > 100 µM (inactive) | > 100 µM (inactive)
NC(CCc1ncc(C(=O)O)s1)C(=O)O (configuration not stated) | > 100 µM (inactive) |  | > 100 µM (inactive) | > 100 µM (inactive) | > 100 µM (inactive) | > 100 µM (inactive) | > 100 µM (inactive) | > 100 µM (inactive) | > 100 µM (inactive) | > 100 µM (inactive) | > 100 µM (inactive) | > 100 µM (inactive) | > 100 µM (inactive) |  |  | > 100 µM (inactive) | > 100 µM (inactive) | > 100 µM (inactive) | 
NCc1cccc(O)c1O | > 100 µM (inactive) | > 100 µM (inactive) | > 100 µM (inactive) | > 100 µM (inactive) | 55.3 µM (inactive) | > 100 µM (inactive) |  | > 100 µM (inactive) | > 100 µM (inactive) | > 100 µM (inactive) | > 100 µM (inactive) | 79.8 µM (inactive) | > 100 µM (inactive) | > 100 µM (inactive) | 38.7 µM (inactive) | > 100 µM (inactive) | > 100 µM (inactive) | > 100 µM (inactive) | > 100 µM (inactive)
O=c1c2cccnc2ncn1CCN1CCCC1 | > 100 µM (inactive) | > 100 µM (inactive) | > 100 µM (inactive) | > 100 µM (inactive) | > 100 µM (inactive) | > 100 µM (inactive) | > 100 µM (inactive) | > 100 µM (inactive) | > 100 µM (inactive) |  | > 100 µM (inactive) | > 100 µM (inactive) | > 100 µM (inactive) | > 100 µM (inactive) |  | > 100 µM (inactive) | > 100 µM (inactive) | > 100 µM (inactive) | > 100 µM (inactive)
O=C(c1ccccc1)c1c(CC(O)c2ccccn2)n(C(=O)c2ccccc2)c2ccccc12 (configuration not stated) |  | 20.7 µM (inactive) | 21.5 µM (inactive) | 17.1 µM (inactive) | 25.6 µM (inactive) | 31.4 µM (inactive) | 16.7 µM (inactive) | 26.1 µM (inactive) | 15 µM (inactive) | 17.7 µM (inactive) | 20.3 µM (inactive) | 14 µM (inactive) | 15.7 µM (inactive) | 28.3 µM (inactive) | > 10 µM (inactive) | 28.4 µM (inactive) | 28.5 µM (inactive) | 25.1 µM (inactive) | 17.9 µM (inactive)
O=C(/C(=N/Nc1ccccc1)c1ccc([N+](=O)[O-])cc1)c1ccc([N+](=O)[O-])cc1 | > 100 µM (inactive) | > 100 µM (inactive) | > 100 µM (inactive) | > 100 µM (inactive) |  | > 100 µM (inactive) | > 100 µM (inactive) | > 100 µM (inactive) | 20.7 µM (inactive) | > 100 µM (inactive) | 21.9 µM (inactive) | > 100 µM (inactive) | > 100 µM (inactive) |  |  | > 100 µM (inactive) | > 100 µM (inactive) | > 100 µM (inactive) | 
COc1ccc2c(=O)c(C)c(-c3ccccc3)oc2c1CN(C)C [DIMEFLINE] |  | 65.5 µM (inactive) | > 100 µM (inactive) | > 100 µM (inactive) | > 100 µM (inactive) |  | > 100 µM (inactive) | > 100 µM (inactive) |  |  | > 100 µM (inactive) | > 100 µM (inactive) | > 100 µM (inactive) |  |  | > 100 µM (inactive) | > 100 µM (inactive) |  | > 100 µM (inactive)
